Measured values published in PubChem BioAssay (NCI).
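Following 48 hours of exposure in 96-well plates, responses at five concentrations were used to interpolate endpoints linearly. TGI marks complete inhibition of growth.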

How the values were obtained:
Experiment in all cases: NCI-60 cell line screen, 48 h
A549 NSCLC = tested on: A549 NSCLC
SK-MEL-28 melanoma = tested on: SK-MEL-28 melanoma
SF-539 CNS = tested on: SF-539 CNS
ACHN renal = tested on: ACHN renal
OVCAR-4 ovarian = tested on: OVCAR-4 ovarian
SF-295 CNS = tested on: SF-295 CNS
UACC-257 melanoma = tested on: UACC-257 melanoma
UACC-62 melanoma = tested on: UACC-62 melanoma
HOP-62 NSCLC = tested on: HOP-62 NSCLC
DMS 114 small cell lung = tested on: DMS 114 small cell lung
RXF 393 renal = tested on: RXF 393 renal
SNB-75 CNS = tested on: SNB-75 CNS
M19-MEL melanoma = tested on: M19-MEL melanoma
SN12C renal = tested on: SN12C renal
UO-31 renal = tested on: UO-31 renal
SK-MEL-5 melanoma = tested on: SK-MEL-5 melanoma
SK-OV-3 ovarian = tested on: SK-OV-3 ovarian
DMS 273 small cell lung = tested on: DMS 273 small cell lung
COLO 205 colon = tested on: COLO 205 colon
IGROV1 ovarian = tested on: IGROV1 ovarian
HCT-116 colon = tested on: HCT-116 colon
CAKI-1 renal = tested on: CAKI-1 renal
KM12 colon = tested on: KM12 colon
HT29 colon = tested on: HT29 colon
OVCAR-5 ovarian = tested on: OVCAR-5 ovarian
HOP-18 NSCLC = tested on: HOP-18 NSCLC
EKVX NSCLC = tested on: EKVX NSCLC
SR leukemia = tested on: SR leukemia
XF 498 CNS = tested on: XF 498 CNS
M14 melanoma = tested on: M14 melanoma
SNB-19 CNS = tested on: SNB-19 CNS
DLD-1 colon = tested on: DLD-1 colon
SF-268 CNS = tested on: SF-268 CNS
SK-MEL-2 melanoma = tested on: SK-MEL-2 melanoma
RPMI-8226 leukemia = tested on: RPMI-8226 leukemia
CCRF-CEM leukemia = tested on: CCRF-CEM leukemia
OVCAR-3 ovarian = tested on: OVCAR-3 ovarian
NCI-H522 lung = tested on: NCI-H522 lung
HL-60(TB) leukemia = tested on: HL-60(TB) leukemia
SW-620 colon = tested on: SW-620 colon
K-562 leukemia = tested on: K-562 leukemia
HCC-2998 colon = tested on: HCC-2998 colon
LXFL 529 NSCLC = tested on: LXFL 529 NSCLC
HOP-92 NSCLC = tested on: HOP-92 NSCLC
KM20L2 colon = tested on: KM20L2 colon
TK-10 renal = tested on: TK-10 renal
MALME-3M melanoma = tested on: MALME-3M melanoma
RXF-631 renal = tested on: RXF-631 renal
U251 CNS = tested on: U251 CNS
NCI-H460 lung = tested on: NCI-H460 lung
SNB-78 CNS = tested on: SNB-78 CNS
NCI-H226 lung = tested on: NCI-H226 lung
NCI-H23 lung = tested on: NCI-H23 lung
HCT-15 colon = tested on: HCT-15 colon
OVCAR-8 ovarian = tested on: OVCAR-8 ovarian
A498 renal = tested on: A498 renal
MOLT-4 leukemia = tested on: MOLT-4 leukemia
786-0 renal = tested on: 786-0 renal

SMILES: Cc1cc(Cl)ccc1NC(=O)CC1SC(=Nc2ccccc2Cl)NC1=O (stereo not drawn)
- TGI (A549 NSCLC): > 100 µM
- TGI (SK-MEL-28 melanoma): > 100 µM
- TGI (SF-539 CNS): 55.3 µM
- TGI (ACHN renal): > 100 µM
- TGI (OVCAR-4 ovarian): > 100 µM
- TGI (SF-295 CNS): > 100 µM
- TGI (UACC-257 melanoma): > 100 µM
- TGI (UACC-62 melanoma): > 100 µM
- TGI (HOP-62 NSCLC): > 100 µM
- TGI (DMS 114 small cell lung): 67.5 µM
- TGI (RXF 393 renal): 84.3 µM
- TGI (SNB-75 CNS): > 100 µM
- TGI (M19-MEL melanoma): > 100 µM
- TGI (SN12C renal): > 100 µM
- TGI (UO-31 renal): > 100 µM
- TGI (SK-MEL-5 melanoma): > 100 µM
- TGI (SK-OV-3 ovarian): > 100 µM
- TGI (DMS 273 small cell lung): > 100 µM
- TGI (COLO 205 colon): 47.1 µM
- TGI (IGROV1 ovarian): > 100 µM
- TGI (HCT-116 colon): > 100 µM
- TGI (CAKI-1 renal): > 100 µM
- TGI (KM12 colon): > 100 µM
- TGI (HT29 colon): > 100 µM
- TGI (OVCAR-5 ovarian): > 100 µM
- TGI (HOP-18 NSCLC): > 100 µM
- TGI (EKVX NSCLC): > 100 µM
- TGI (SR leukemia): 70.2 µM
- TGI (XF 498 CNS): > 100 µM
- TGI (M14 melanoma): > 100 µM
- TGI (SNB-19 CNS): > 100 µM
- TGI (DLD-1 colon): > 100 µM
- TGI (SF-268 CNS): > 100 µM
- TGI (SK-MEL-2 melanoma): > 100 µM
- TGI (RPMI-8226 leukemia): > 100 µM
- TGI (CCRF-CEM leukemia): > 100 µM
- TGI (OVCAR-3 ovarian): > 100 µM
- TGI (NCI-H522 lung): 80.4 µM
- TGI (HL-60(TB) leukemia): 40.4 µM
- TGI (SW-620 colon): > 100 µM
- TGI (K-562 leukemia): > 100 µM
- TGI (HCC-2998 colon): > 100 µM
- TGI (LXFL 529 NSCLC): > 100 µM
- TGI (HOP-92 NSCLC): > 100 µM
- TGI (KM20L2 colon): 88.2 µM
- TGI (TK-10 renal): > 100 µM
- TGI (MALME-3M melanoma): > 100 µM
- TGI (RXF-631 renal): > 100 µM
- TGI (U251 CNS): > 100 µM
- TGI (NCI-H460 lung): > 100 µM
- TGI (SNB-78 CNS): > 100 µM
- TGI (NCI-H226 lung): > 100 µM
- TGI (NCI-H23 lung): > 100 µM
- TGI (HCT-15 colon): > 100 µM
- TGI (OVCAR-8 ovarian): > 100 µM
- TGI (A498 renal): > 100 µM
- TGI (MOLT-4 leukemia): > 100 µM
- TGI (786-0 renal): > 100 µM
